Common to all, as to format: cell-based
Assay [1] concerns HCV genotype 1a subgenomic replicon. Briefly: Anti-Hepatitis C replicon assay, genotype 1a (luciferase). Conditions: Hepatitis C virus; luciferase activity measured 48 hours later; read-out: HCV Genotype 1A Replicon pEC50 (converted). As to the method: (§1) Compounds were assayed for activity against HCV using the genotype 1a and 1b subgenomic replicon model systems. Stable cell lines bearing the genotype 1a and 1b replicons were used for screening of compounds. Both replicons are bicistonic and contain the firefly luciferase gene. The ET cell line is stably transfected with RNA transcripts harboring a I389luc-ubi-neo/NS3-3′/ET replicon with firefly luciferase-ubiquitin-neomycin phosphotransferase fusion protein and EMCV-IRES driven NS3-5B polyprotein containing the cell culture adaptive mutations (E1202G; T1280I; K1846T) (Krieger at al, 2001 and unpublished). The genotype 1a replicon is a stable cell line licensed from Apath LLC, modified to contain the firefly luciferase gene. The cells were grown in DMEM, supplemented with 10% fetal calf serum, 2 mM Glutamine, Penicillin (100 IU/mL)/Streptomycin (100 μg/mL), 1× nonessential amino acids, and 250-500 μg/mL G418 (“Geneticin”). They were all available through Life Technologies (Bethesda, Md.). The cells were plated at 0.5×10^4 cells/well in 384 well plates containing compounds. The final concentration of compounds ranged between 0.03 pM to 50 μm and the final DMSO concentration of 0.5-1%.
(§2) Luciferase activity was measured 48 hours later by adding a Steady glo (Promega, Madison, Wis.). Percent inhibition of replication data was plotted relative to no compound control. Under the same condition, cytotoxicity of the compounds was determined using cell titer glo (Promega, Madison, Wis.). IC50s were determined from a 10 point dose response curve using 3-4-fold serial dilution for each compound, which spans a concentration range>1000 fold. BioAssay determines the level of inhibition for each compound by normalizing cross-talk corrected plate values against the negative (low or background, cells with no compound present) and positive (high DMSO, no cells) controls to determine Percent Inhibition:
(§3) These normalized values are exported to IC50 where they are plotted against the molar compound concentrations using the standard four parameter logistic equation: […]
In general terms: Replicon systems follow genome replication, usually without infectious particles.

The subject of assay [2] is HCV genotype 1b subgenomic replicon. Briefly: Anti-Hepatitis C replicon assay, genotype 1b (luciferase). Conditions: Hepatitis C virus; luciferase activity measured 48 hours later; read-out: HCV Genotype 1B Replicon pEC50 (converted). As to the method:
as §1, §2, §3

Assay [3] deals with ISG56 (Interferon-Stimulated Gene 56) promoter ISRE. Nature of the assay: ISG56 luciferase reporter assay in HEK 293 cells. To be noted: Homo sapiens, HEK293; HEK 293 reporter, 24 hours; 100% = small molecule control test compound; read-out: ISG56 (Average Max Response) %. As to the method:
Compounds of the present invention were tested against a HEK (Human Embryonic Kidney) 293 cell line that was stably transfected with a firefly luciferase reporter gene under the control of the ISG56 (Interferon-Stimulated Gene 56) promoter ISRE (Interferon-Stimulated Response Element). While the ISRE is in the opposite orientation of the wild type promoter, literature^1 cites that the response elements are pallindromic and function properly in either orientation. ^1Reich, N., Evans, B., Levy, D., Fahey, D., Knight, E., Damell, J. E. (1987) Interferon-induced transcription of a gene encoding a 15-kDa protein depends on an upstream enhancer element. See, Proc. Natl. Acad. Sci. 84, (6394-6398).
In preparation for the assay, test compounds were serially diluted 3-fold in DMSO from a typical top concentration of 5 mM and plated at 0.2 μL in a 384-well, polystyrene, tissue culture treated plate with lid (Greiner Bio-One North America, Inc., Monroe, N.C.) to generate 11-point dose response curves in the assay. Low control wells (0% response) contained 0.2 μL of DMSO alone, and high control wells (100% response) contained 0.2 μL of a small molecule control test compound.
Frozen stocks of the transfected HEK 293 cells were washed and recovered in DMEM I Ham's F-12 media (Invitrogen Corporation, Carlsbad, Calif.) supplemented with 10% v/v qualified Australian fetal bovine serum (FBS) (Invitrogen Corporation, Carlsbad, Calif.), 1× GlutaMAX™ (Invitrogen Corporation, Carlsbad, Calif.), 1×MEM non-essential amino acids (NEAA) (Invitrogen Corporation, Carlsbad, Calif.) and 500 μg/ml Geneticin® (Invitrogen Corporation, Carlsbad, Calif.). The cells were diluted to 500,000 cells/mL in the supplemented DMEM/Ham's F-12 media, and 20 μL of the cell suspension were added to each well of the previously prepared 384-well compound plate, resulting in 10,000 cells/well. The plate, with lid, were placed in a 37° C., 5% CO2 humidified incubator for 24 hours.
Following incubation, the plates were removed and placed on the bench top without lids to equilibrate to room temperature for 30 minutes. Steady-Glo® (Promega Corporation, Madison, Wis.) was prepared according to the manufacturer's instructions, and 10 μL were added to each plate well. After a twenty minute incubation at room temperature, luminescence was read on a ViewLux™ (PerkinElmer Inc., Waltham, Mass.).
The data for dose responses were plotted as % activation versus compound concentration following normalization using the formula 100*((U−C1)/(C2−C1)), where U was the unknown value, C1 was the average of the low (0% response) control wells and C2 was the average of the high (100% response) control wells. Curve fitting was performed with the equation y=A+((B−A)/(1+(10^x/10^C)^D)), where A was the minimum response, B was the maximum response, C was the log(EC50) and D was the Hill slope. The results for each test compound were recorded as pEC50 values (—C in the above equation) and as max response values at a given concentration.
On the technique in general: In a reporter assay the amount or activity of a reporter protein is the signal.

The test system of assay [4] is reconstructed human epidermis (RHE) keratinocytes. Briefly: JAK/STAT induction in reconstructed human epidermis (western blot, real-time PCR). To be noted: 10 μM (IFN-alpha 100 U/mL), 6 and 72 hrs. On the procedure: First, reconstructed human epidermis (“RHE”) consisting of cultured human keratinocyte cells were incubated in triplicate with media containing either the media alone, media+0.1% DMSO, media containing 10 μM of several putative JAK/STAT activator compounds described herein in Tables 1 and 2 (Example 1, Example 2, Example 11, and compound no. 89 (as a negative control)), or media containing 100 U/mL of a positive control Interferon-alpha (IFN-alpha) recombinant protein at 37° C. in a humidified atmosphere containing 5% CO2, for 6 and 72 hours.
At the end of the incubation period, the RHE tissues were cut into two sections. One section was ¼ of the total size and the second section was […].
(In general: In western blotting, separated proteins are transferred to a membrane and probed.)

For a further assay, the target named is T1, human JAK1 (Homo sapiens, UniProt P23458).
T1 construct: expressed in transfected cells; host or cells: U4A cells (JAK1-deficient derivative of the human fibroblast line 2fGH), transduced with a baculovirus mammalian expression system
T1 sequence (P23458 whole entry): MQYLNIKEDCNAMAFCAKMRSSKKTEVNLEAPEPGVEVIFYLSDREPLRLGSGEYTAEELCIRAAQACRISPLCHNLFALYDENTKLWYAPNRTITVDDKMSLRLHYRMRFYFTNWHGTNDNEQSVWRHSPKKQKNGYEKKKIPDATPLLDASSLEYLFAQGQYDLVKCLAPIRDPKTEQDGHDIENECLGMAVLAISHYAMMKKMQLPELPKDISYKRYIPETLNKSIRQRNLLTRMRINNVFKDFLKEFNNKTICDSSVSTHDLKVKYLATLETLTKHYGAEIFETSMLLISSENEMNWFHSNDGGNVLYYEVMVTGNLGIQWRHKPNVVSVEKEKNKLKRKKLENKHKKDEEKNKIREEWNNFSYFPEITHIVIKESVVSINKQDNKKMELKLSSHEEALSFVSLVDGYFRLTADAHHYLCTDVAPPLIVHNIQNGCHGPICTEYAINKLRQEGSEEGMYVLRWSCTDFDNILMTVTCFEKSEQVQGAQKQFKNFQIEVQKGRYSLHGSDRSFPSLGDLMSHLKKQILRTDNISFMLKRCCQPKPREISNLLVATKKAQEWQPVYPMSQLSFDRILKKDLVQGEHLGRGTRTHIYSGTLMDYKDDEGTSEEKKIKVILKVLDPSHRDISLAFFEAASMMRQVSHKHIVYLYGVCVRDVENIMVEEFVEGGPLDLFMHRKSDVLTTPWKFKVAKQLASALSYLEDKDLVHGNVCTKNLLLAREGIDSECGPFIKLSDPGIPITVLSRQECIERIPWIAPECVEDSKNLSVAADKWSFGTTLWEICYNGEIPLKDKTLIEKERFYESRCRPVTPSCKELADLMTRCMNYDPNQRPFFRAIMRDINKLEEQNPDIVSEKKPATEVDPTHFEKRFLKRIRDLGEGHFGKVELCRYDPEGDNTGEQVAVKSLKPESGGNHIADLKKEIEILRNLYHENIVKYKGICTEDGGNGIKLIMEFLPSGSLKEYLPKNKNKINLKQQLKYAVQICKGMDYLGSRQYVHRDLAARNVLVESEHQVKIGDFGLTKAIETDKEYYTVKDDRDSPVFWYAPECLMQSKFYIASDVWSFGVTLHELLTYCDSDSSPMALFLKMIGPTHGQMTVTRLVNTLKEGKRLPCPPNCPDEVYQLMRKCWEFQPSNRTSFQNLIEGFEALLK
Nature of the assay: JAK1 reconstitution in U4A and 2fGH cells (phosphor-STAT1 western blot, Taqman mRNA). Conditions: 100 U/ml. As to the method:
2fGH and U4A cells were obtained from the Cleveland Clinic. 2fGH is a human fibroblast cell line and U4A cell line is a derivative 2fGH harboring a defect in JAK1 expression (Muller, et al., Nature 366, 129-135 (1993)). Green fluoroscent protein (GFP) or human JAK1 was transduced in U4A cells by baculovirus mammalian expression system. After 24 hours post transduction, the cells were treated with DMSO, Example 1 (10 μM), IFNα (100 U/ml), IFNβ (100 U/ml), or IFNγ (100 U/ml). Untransduced U4A cells and 2fGH cells were included as controls for 6 or 18 hours. The cells were harvested at indicated time points and used for detecting phosphor-STAT1 by western blot (FIG. 10, panel A) or for mRNA analysis by Taqman quantitation (FIG. 10, panel B).
The total cell lysates were analyzed on a 4-20% SDS-PAGE gradient gel and followed by immunoblotting using anti-phopho STAT1 antibody (Cell Signaling). The level of actin was monitored as a loading control. The bands were visualized by the alkaline phosphatase activity conjugated with the secondary antibody (Promega) using ProtoBlot II AP system (Promega).
Gene expression was measured using TaqMan Fast Universal PCR Master Mix (Applied Biosystems) and gene specific probes and murine primers in HT7900 FAST System (Invitrogen). As housekeeping genes, actin and GAPDH were used for normalization. Data was calculated by the ΔΔCt method and fold change determined compared to non-treated control samples.

`FC(F)(F)c1cc(C(F)(F)F)c2ccc3cc(-c4nnco4)n(Cc4ccccc4)c3c2n1` [Compound 14, 2-[1-benzyl-6,8-bis(trifluoromethyl)-1H-pyrrolo[3,2-h]quinolin-2-yl]-1,3,4-oxadiazole]: the EC50 was 7940 nM in assay [1] and 1000 nM in assay [2]. Further, the Emax in assay [3] amounted to 10%.
As to `FC(F)(F)c1cc(C(F)(F)F)c2ccc3[nH]c(-c4nnco4)cc3c2n1` [Compound 8, 2-[2,4-bis(trifluoromethyl)-7H-pyrrolo[2,3-h]quinolin-8-yl]-1,3,4-oxadiazole], the EC50 in assay [1] and in assay [2] was 631 nM throughout. Besides, the Emax in assay [3] came to 2.5%.
Regarding `FC(F)(F)c1cc(C(F)(F)F)c2ccc3[nH]c(-c4cnco4)nc3c2n1` [Compound 28, 5-[6,8-bis(trifluoromethyl)-3H-imidazo[4,5-h]quinolin-2-yl]-1,3-oxazole], the EC50 in assay [1] is 10000 nM; in assay [2], 7940 nM. In assay [3], the Emax amounted to 11.5%.
For `Cn1c(-c2nnco2)cc2ccc3c(C(F)(F)F)cc(C(F)(F)F)nc3c21` [Compound 16, 2-[1-methyl-6,8-bis(trifluoromethyl)-1H-pyrrolo[3,2-h]quinolin-2-yl]-1,3,4-oxadiazole] the same measures were 251 nM, 1000 nM and 35.5%.
For the molecule `FC(F)(F)c1cc(C2CCCC2)nc2c1ccc1nc(-c3nnco3)cn12` [Compound 2, 2-[2-cyclopentyl-4-(trifluoromethyl)imidazo[1,2-a]1,8-naphthyridin-8-yl]-1,3,4-oxadiazole], the EC50 in assay [1] was 50.1 nM; in assay [2], 251 nM. Also, the Emax in assay [3] was 31%. Moreover, in assay [4], the “Stat1 phosphorylation (western blot)” value is “Stat1 phosphorylation”.
Regarding `O=C(C1CCC1)n1c(-c2nnco2)cc2ccc3c(C(F)(F)F)cc(C(F)(F)F)nc3c21` [Compound 21, 2-[1-cyclobutanecarbonyl-6,8-bis(trifluoromethyl)-1H-pyrrolo[3,2-h]quinolin-2-yl]-1,3,4-oxadiazole], the EC50 in assay [1] was 631 nM; in assay [2], 2000 nM. Further, in assay [3], the Emax came out at 70%.
Consider `CC(C)c1cc(C(F)(F)F)c2ccc3nc(-c4nnco4)cn3c2n1` [Compound 3, 2-[2-(propan-2-yl)-4-(trifluoromethyl)imidazo[1,2-a]1,8-naphthyridin-8-yl]-1,3,4-oxadiazole], for which the values for the EC50 in assay [1] and in assay [2] were 100 nM and 316 nM, respectively. Besides, the Emax in assay [3] came out at 408%.
The matching figures for `CC(=O)n1c(-c2nnco2)cc2ccc3c(C(F)(F)F)cc(C(F)(F)F)nc3c21` [Compound 22, 1-[2-(1,3,4-oxadiazol-2-yl)-6,8-bis(trifluoromethyl)-1H-pyrrolo[3,2-h]quinolin-1-yl]ethan-1-one]: 501 nM, 2000 nM and 60.5%.
Consider `FC(F)(F)c1cc(C(F)(F)F)c2ccc3nc(-c4nnco4)cn3c2c1` [Compound 24, 2-[6,8-bis(trifluoromethyl)imidazo[1,2-a]quinolin-2-yl]-1,3,4-oxadiazole], for which the EC50 in assay [1] is 631 nM; in assay [2] it was 3160 nM. The Emax in assay [3] worked out at 5.75%.

B1: IFNγ: type II interferon used as control treatment (100 U/ml) (protein, UniProt P01579 24-161, looked up)
Interferon gamma: QDPYVKEAENLKKYFNAGHSDVADNGTLFLGILKNWKEESDRKIMQSQIVSFYFKLFKNFKDDQSIQKSVETIKEDMNVKFFNSNKKKRDDFEKLTNYSVTDLNVQRKAIHELIQVMAELSPAAKTGKRKRSQMLFRG
With B1, the “expression of CXCL9 in 2fGH cells” value in the assay with human JAK1 is “only observed with IFNγ treatment”.

The values above are taken from US20140249143A1, “Compounds And Methods For Enhancing Innate Immune Responses” (GlaxoSmithKline LLC, priority 2011, published 2014).
